Results reported in patent US12331018B2, “Pyrrolidine orexin receptor agonists” (Merck Sharp & Dohme LLC, priority 2019, dated 2025).
Where two headings read alike, the source gives them in different places.

Target: T1, human OX2R (Homo sapiens, UniProt O43614)
T1 construct: expressed in transfected cells; host or cells: CHO (Chinese hamster ovary) cells, grown under G418 selection
T1 sequence (O43614 1-444): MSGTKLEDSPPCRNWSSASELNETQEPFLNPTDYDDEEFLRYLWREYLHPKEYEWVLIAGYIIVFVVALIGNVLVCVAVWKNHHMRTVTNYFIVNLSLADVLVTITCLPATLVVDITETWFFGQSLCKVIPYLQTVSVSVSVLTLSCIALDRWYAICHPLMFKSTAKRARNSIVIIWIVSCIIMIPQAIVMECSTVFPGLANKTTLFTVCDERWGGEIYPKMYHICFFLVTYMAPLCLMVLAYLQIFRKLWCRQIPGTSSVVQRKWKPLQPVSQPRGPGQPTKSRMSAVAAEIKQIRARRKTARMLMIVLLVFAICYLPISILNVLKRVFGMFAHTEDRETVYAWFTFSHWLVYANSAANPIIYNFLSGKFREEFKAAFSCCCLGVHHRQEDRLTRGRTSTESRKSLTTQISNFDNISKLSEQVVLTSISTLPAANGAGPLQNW
Experiment: IPOne (IP-1 accumulation) assay in CHO cells expressing human OX2R
Assay type: cell-based
Conditions: for Emax, % of reference agonist: OX2R, percentage of sample raw value/mean max effect (reference compound at 1 uM with 100% activity)
Description: The utility of the compounds in accordance with the present invention as orexin receptor OX1R and/or OX2R agonists may be readily determined without undue experimentation by methodology well known in the art. Both the OX1R and/or OX2R G-coupled protein receptors (GPCRs) couple through the Gaq signaling pathway, which ultimately promotes calcium mobilization via inositol triphosphate (IP3) production. The half-life of IP-3 is relatively short, being rapidly metabolized to inositol monophosphate (IP-1), which can be readily detected using a commercially available assay kit (IP-One; Cisbio; cat #621PAPEC) coupled with a cell line expressing the target receptor(s) of interest. The utility of the compounds in accordance with the present invention as orexin receptor OX1R and/or OX2R agonists may be determined utilizing this assay.
In a typical experiment, the OX1 and OX2 receptor agonist activity is determined in accordance with the following general experimental method. Chinese hamster ovary (CHO) cells expressing human OX1R and/or the human OX2R were grown in Iscove's modified DMEM containing glutaMAX™, 1% G418, 100 U/mL penicillin, 100 μg/mL streptomycin and 10% heat-inactivated qualified fetal bovine serum (FBS). The OX2R cells were seeded at 10,000 cells/well/50 μL and the OX1R cells were seeded at 20,000 cells/well/50 μL into 384-well white tissue culture plates (Greiner; cat #781080). All cell/media reagents were from GIBCO-Invitrogen Corp. The seeded cell plate(s) were incubated at 37° C. with 5% CO2 and 85% humidity for 20-24 hours. On the day of the assay, assay-ready compound plates were prepared using an acoustic liquid handler (ECHO; Labcyte), which dispensed sufficient volume of test compound stock (10 mM in DMSO) or 100% DMSO to prepare 10 point, ½-log dilutions in a final volume of 202.5 nL/well in all test wells of a 384-well diamond plate (Labcyte). Following completion of assay-ready plates, importantly, the next three steps were performed with minimal delay: 1) 20 μl of 1× stimulation buffer was added to the compound plate using a Multidrop Combi (small cassette, Thermo Fisher Scientific cat #24073290); 2) culture medium was removed from the cell plate using the Bluewasher plate washer (gentle spin; BlueCatBio); 3) 14 μl of compound/stimulation buffer mixture was added to the cell plate using a Bravo liquid handler (Agilent) prior to incubating cell plates at 37° C. with 5% CO2 and 85% humidity for 1 or 2 hours (OX1R and OX2R, respectively). During this incubation, IP-one detection reagents were prepared (38:1:1 lysis buffer:D2:AB-cryptate reagents). Six μL of mixed detection reagents were added to the cell plate using a Multidrop Combi (small cassette, Thermo Fisher Scientific cat #24073290) and incubated 60 minutes at room temperature in the dark. Fluorescence signal was detected using an Envision plate reader (Perkin Elmer) [LANCE/DELFIA Dual Enh (Em: APC 665; Ex: Cy5 620)].
For each compound, data were fit to a four parameter logistic fit (ActivityBase software) and the EC50 was reported as the inflection point of the resulting curve. Percent effect for each test compound was determined as the percentage of sample raw value/mean max effect, where the mean max effect was derived from the mean raw value of 32 control wells per assay plate (using Orexin A (cat #003-30) at 1 μM for human OX1R and a reference compound at 1 uM with 100% activity previously established by comparison to Orexin A for human OX2R). The intrinsic orexin receptor agonist activity of a compound which may be used in the present invention may be determined by these assays.

[1] = CHO cells expressing human OX2R, IP-One assay, 2 hours incubation, four parameter logistic fit, read-out: OX2R Potency, EC50

SMILES | EC50 [1] | Emax, % of reference agonist | EC50
CCS(=O)(=O)N[C@H]1CCN(C(=O)OC)[C@H]1CO[C@H]1CC[C@@H](c2ccccc2)CC1 (relative stereo) [Example 13, methyl (CIS)-3-(ethylsulfonamido)-2-((((CIS)-4-phenylcyclohexyl)oxy)methyl)pyrrolidine-1-carboxylate] | 136 nM | 99.9% | –
CCNC(=O)N1CC[C@H](NS(C)(=O)=O)[C@@H]1CO[C@H]1CC[C@@H](c2ccccc2)CC1 (relative stereo) [Example 1, (CIS)-N-ethyl-3-(methylsulfonamido)-2-((((CIS)-4-phenylcyclohexyl)oxy)methyl)pyrrolidine-1-carboxamide] | – | 99.6% | 12 nM
CS(=O)(=O)N[C@H]1CCN(C(=O)OCC(F)F)[C@H]1CO[C@H]1CC[C@@H](c2ccccc2)CC1 [Example 12, 2,2-difluoroethyl (2R,3S)-3-(methylsulfonamido)-2-((((CIS)-4-phenylcyclohexyl)oxy)methyl) pyrrolidine-1-carboxylate] | 81 nM | 101.1% | –
COC(=O)N1CC[C@@H](NS(=O)(=O)C(C)C)[C@H]1CO[C@H]1CC[C@@H](c2ccccc2)CC1 (relative stereo) [Example 14, methyl (CIS)-3-((1-methylethyl)sulfonamido)-2-((((CIS)-4-phenylcyclohexyl)oxy)methyl) pyrrolidine-1-carboxylate] | 372 nM | 101.3% | –
CC(=O)OCC(=O)N1CC[C@H](NS(C)(=O)=O)[C@@H]1CO[C@H]1CC[C@@H](c2ccccc2)CC1 (relative stereo) [Example 7, 2-((CIS)-3-(methylsulfonamido)-2-((((CIS)-4-phenylcyclohexyl)oxy)methyl)pyrrolidin-1-yl)-2-oxoethyl acetate] | 361 nM | 98.8% | –
CS(=O)(=O)N[C@@H]1CCN(C(=O)OCCF)[C@@H]1CO[C@H]1CC[C@@H](c2ccccc2)CC1 (relative stereo) [Example 6, 2-fluoroethyl (CIS)-3-(methylsulfonamido)-2-((((CIS)-4-phenylcyclohexyl)oxy)methyl) pyrrolidine-1-carboxylate] | 216 nM | 98.4% | –
CS(=O)(=O)N[C@H]1CCN(C(=O)NC2CC2)[C@H]1CO[C@H]1CC[C@@H](c2ccccc2)CC1 (relative stereo) [Example 22, (CIS)-N-cyclopropyl-3-(methylsulfonamido)-2-((((CIS)-4-phenylcyclohexyl)oxy)methyl)pyrrolidine-1-carboxamide] | 250 nM | 99.6% | –
CC(C)OC(=O)N1CC[C@@H](NS(C)(=O)=O)[C@H]1CO[C@H]1CC[C@@H](c2ccccc2)CC1 (relative stereo) [Example 5, isopropyl (CIS)-3-(methylsulfonamido)-2-((((CIS)-4-phenylcyclohexyl)oxy)methyl) pyrrolidine-1-carboxylate] | 2630 nM | 92.8% | –
CC(C)NC(=O)N1CC[C@@H](NS(C)(=O)=O)[C@H]1CO[C@H]1CC[C@@H](c2ccccc2)CC1 (relative stereo) [Example 9, (CIS)-N-isopropyl-3-(methylsulfonamido)-2-((((CIS)-4-phenylcyclohexyl)oxy)methyl) pyrrolidine-1-carboxamide] | 36.4 nM | 99.2% | –
CS(=O)(=O)N[C@H]1CCN(C(=O)OCC(F)F)[C@H]1CO[C@H]1CC[C@@H](c2ccccc2)CC1 (relative stereo) [Example 23, 2,2-difluoroethyl (CIS)-3-(methylsulfonamido)-2-((((CIS)-4-phenylcyclohexyl)oxy)methyl)-pyrrolidine-1-carboxylate] | 59.6 nM | 101.3% | –
